Laboratory results as given in patent US12370170B2, “Composition comprising naphthoquinone-based compound as active ingredient, for preventing or ameliorating fatigue, cachexia, pain, cognitive decline and hematopoietic stem cell reduction which are side effects related to anticancer drug treatment” (NADIANBIO LTD., priority 2016, dated 2025).

Legend:
Format in all cases: in vivo, C57BL/6 mice
orexin = assay: Orexin protein in hypothalamus by ELISA, 4×ACP animal model; details: dunnione 80 mg/kg oral daily from 3 days before, 2 days after ACP
Protocol: In this invention, 11 weeks old C57BL/6 mice were used. All the mice used in the experiments of the invention were raised in an aseptic animal room at the temperature of 22˜26 L with the humidity of 55˜60%. The mice were allowed to take general solid feed (SAMTACO Co., Ltd., Korea) and water freely. The mice were adapted for 1 week before the experiment. All the experiments were performed after obtaining approval from the clinical trial management committee in accordance with the laboratory animal care and ethics regulations of Wonkwang University. The mouse animal model of the present invention was treated with different anticancer drugs. Particularly, one kind of anticancer drug was administered intraperitoneally one time or more, or several kinds of anticancer drugs were administered once or more times or at different concentrations, leading to the establishment of the animal model of the invention. […]
To analyze orexin protein in the 4×ACP animal model prepared by the same manner as described in Example 8, the hypothalamus of the mouse was extracted, followed by the preparation of a homogenate. Orexin (MyBioSource, MBS2505504) was analyzed by ELISA to investigate the regulatory effect of β-lapachone on orexin.

[1] = test system: inflammatory cytokines TNF-α and IL-1β; assay: Brain inflammatory response: TNF-α and IL-1β in hypothalamus (RT-PCR, ELISA), 4×ACP animal model; details: dunnione 80 mg/kg oral
Protocol: (§1) In this invention, 11 weeks old C57BL/6 mice were used. All the mice used in the experiments of the invention were raised in an aseptic animal room at the temperature of 22˜26 L with the humidity of 55˜60%. The mice were allowed to take general solid feed (SAMTACO Co., Ltd., Korea) and water freely. The mice were adapted for 1 week before the experiment. All the experiments were performed after obtaining approval from the clinical trial management committee in accordance with the laboratory animal care and ethics regulations of Wonkwang University. The mouse animal model of the present invention was treated with different anticancer drugs. Particularly, one kind of anticancer drug was administered intraperitoneally one time or more, or several kinds of anticancer drugs were administered once or more times or at different concentrations, leading to the establishment of the animal model of the invention. In the adriamycin-induced animal model, the mice were divided into 6 groups as follows: the control group administered with PBS (Control, 5 mice), the group administered intraperitoneally with adriamycin (4 mg/kg/day) 3 times (ADR, 5 mice), the group administered orally with dunnione or β-lapachone from 3 days before the adriamycin treatment daily (20 mg/kg, 5 mice), and the group administered with dunnione or β-lapachone (20 mg/kg, 5 mice). 4 days after the final adriamycin treatment, analysis of the mice was performed.
The present inventors established an animal model co-treated with three different anticancer drugs in this experiment. The anticancer drugs used herein were adriamycin (ADR), cyclophosphamide (CYP) and paclitaxel (PTX), which were indicated as ACP. […]
A homogenate was prepared with the mouse hypothalamus extracted from the 4×ACP animal model prepared by the same manner as described in Example 8. Then, the expressions of the inflammatory cytokines TNF-α and IL-1β in the brain tissue were analyzed by ELISA.

[2] = test system: bone marrow cells and hematopoietic stem/progenitor cells; assay: Bone marrow hematopoietic stem cell reduction by flow cytometry, 3×ACP animal model; details: 2 days after ACP
Protocol: as §1
In the 3×ACP induced animal model for the analysis of bone marrow hematopoietic stem cell protective effect, the mice were divided into 4 groups as follows: the control group administered with PBS (Control, 4 mice), the group administered intraperitoneally with 3×ACP once (3×ACP, 4 mice), the group administered orally with dunnione from 3 days before the 3×ACP treatment daily (20 mg/kg, 4 mice), and the group administered with dunnione (20 mg/kg, 4 mice). 2 days after the ACP treatment, analysis of the mice was performed. […]
As a result, as shown in FIG. 9 presenting the results of flow cytometry for the quantitative analysis of bone marrow hematopoietic cells, the region where lineage negative cells were distributed was gated. […] Next, hematopoietic stem cells and multipotent progenitor cells were separated and analyzed, leading to the analysis of multipotent progenitor cell-4 (MPP4) and hematopoietic stem cell/progenitor cell (HSPC). With the hematopoietic stem cell/progenitor cell group, long-term hematopoietic stem cells (HSC^LT), short-term hematopoietic stem cells (HSC^ST), and multipotent progenitor cell-2 and -3 (MPP2 and MPP3) were analyzed. In FIG. 9, the results of flow cytometry analyzed for each group are presented. […]

## CC1OC2=C(C(=O)C(=O)c3ccccc32)C1(C)C (stereo not shown) [dunnione, 2,3-dihydro-2,3,3-trimethyl naphtho [1,2-b]furan-4,5-dione]
orexin
  orexin reduction in the hypothalamus: recovered significantly almost to the same level of the control group
[1]; ELISA
  up-regulations of TNF-α and IL-1β at protein level in the hypothalamus: significantly suppressed
[1]; RT-PCR
  up-regulations of TNF-α and IL-1β at RNA level in the hypothalamus: significantly suppressed
[2]; 3×ACP + dunnione 20 mg/kg oral daily from 3 days before
  total bone marrow cell number, increase relative to the group treated with the anticancer drugs: at least three times
[2]; 3×ACP + dunnione 20 mg/kg oral
  number of hematopoietic stem cell/progenitor cell, increase by dunnione: as much as three times
  number of long-term hematopoietic stem cells (HSC^LT), increase relative to the group treated with the anticancer drugs: at least 2 times
  number of short-term hematopoietic stem cells (HSC^ST), increase relative to the group treated with the anticancer drugs: ≥ 8 times
